# Counter-ions that a name gives are not always drawn.
# Tested on: rats with bladder hypertrophy
# Assay: Inhibitory activity on detrusor overactivity: cystometry in rats with partial urethral obstruction
# Format: in vivo, SD rats
# Details: p.o., Compound (Ia) 0.01 mg/kg, tamsulosin 0.03 mg/kg; for amplitude of premicturition contractions (relative value, before administration = 100) / frequency of premicturition contractions (relative value, before administration = 100) / amplitude of micturition contractions (relative value, before administration = 100): average ± standard error; for amplitude of premicturition contractions (relative value, before administration = 100) / frequency of premicturition contractions (relative value, before administration = 100): n = 9-10; for amplitude of micturition contractions (relative value, before administration = 100): index of voiding function; for effect on micturition contractions (voiding function), in words / effect on premicturition contractions (amplitude and frequency), in words: summary of Test Example
# Method: The experiment was carried out according to the method by Malmgren, et al. [J. Urol., Vol. 142, pp. 1134-1138 (1989)]. Female SD rats of 8 to 9 weeks of age (supplied by Charles River Japan) were used in the test. Five to seven animals of these rats were housed in metal cages and given commercially available chow and water ad libtum, in an animal room maintained at room temperature from 19° C. to 25° C. and humidity from 30% to 70% under illumination for 12 hours (7:00 a.m.-7:00 p.m.) per day. The rats were subjected to operation of partial urethral obstruction. Each animal was anesthetized by intraperitoneal administration of 50 mg/kg pentobarbital sodium (Tokyo Kasei), and the midline incision of the skin and muscle was made in the lower abdomen. A polyethylene tube (PE-20, Becton Dickinson) was inserted into urethra from the urethral orifice to the bladder neck. After the proximal urethra was separated from connective tissues and ligated using double suture, the polyethylene tube was removed to induce partial urethral obstruction. The incised part was sutured with a surgical silk thread. An antibiotic ampicillin (Sigma) was intramusclarly injected (150 mg/kg, once a day, for 3 days). Six weeks after the operation of the partial urethral obstruction, the rats with bladder hypertrophy were subjected to intravesical implantation of catheter. Under anesthesia with pentobarbital sodium, the bladder was exposed by an abdominal midline incision. A polyethylene tube (PE-50, Becton Dickinson), one end of which was blunted not to damage the bladder tissue, was filled with a physiological saline (Otsuka Pharmaceutical Factory) and inserted into the bladder via the bladder apex. The intravesical catheter was fixed with a surgical silk suture. The other end of the catheter was tunneled subcutaneously, drawn out from the dorsal neck, plugged and then fixed to the skin with a suture. Four to seven days after the surgery for implantation of intravesical catheter, a cystometry test was performed. The rats were housed in a Bollman cage (Natsume Seisakusho) and a three-way stopcock was connected to the intravesical catheter, one end of the stopcock was connected to a pressure transducer (Nihon Kohden) and the other end was connected to a 50-mL syringe (Terumo) set in an infusion pump (KD Scientific) for physiological saline infusion. The intravesical pressure was measured with a polygraph system (RMP-6008, Nihon Kohden) via a pressure transducer and a strain pressure amplifier (AP-621G, Nihon Kohden), and recorded on a thermal array recorder (RTA-1200, Nihon Kohden). Sixty to 90 minutes after the completion of the preparation for the measurement, a room temperature physiological saline was continuously infused into the urinary bladder for 30 minutes at a flow rate of 10 mL/h to confirm the occurrence of micturition contractions and premicturition contractions (detrusor overactivity). Thirty minutes after the cessation of the first saline infusion, the saline was again infused intravesically for 30 minutes, and this period is for determination of the data before drug administration. Compound (Ia) was suspended in a 0.5 w/v (weight/volume) % methyl cellulose solution at a concentration of 1 mg/ml. The suspension was further diluted with a 0.5 w/v % methyl cellulose solution to prepare solution for administration [solution for Compound (Ia) administration] at a concentration of 0.01 mg/ml. The solution was orally administered to the rats at a volume of 1 ml/kg. Tamsulosin hydrochloride was dissolved in a 0.5 w/v % methyl cellulose solution at a concentration of 0.03 mg/ml (solution for tamsulosin administration), and the solution was orally administered to the rats at a volume of 1 ml/kg. For investigating the effect of the combined administration, Compound (Ia) solution and the tamsulosin solution were simultaneously and orally administered to the rats, both at a volume of 1 ml/kg each. […]
structure (smiles),measurement,setting,value
"C[C@](O)(C(=O)Nc1cccc2c1C(=O)c1sccc1CS2(=O)=O)C(F)(F)F [Compound (Ia), (S)-(+)-3,3,3-trifluoro-2-hydroxy-2-methyl-N-(5,5,10-trioxo-4,10-dihydrothieno[3,2-c][1]benzothiepin-9-yl)propanamide]","amplitude of premicturition contractions (relative value, before administration = 100)",After 1 hour,62.3 ± 7.7 %
same,"frequency of premicturition contractions (relative value, before administration = 100)",After 1 hour,52.3 ± 7.3 %
same,"amplitude of micturition contractions (relative value, before administration = 100)",After 1 hour,109.5 ± 2.2%
same,"amplitude of premicturition contractions (relative value, before administration = 100)",After 3 hours,62.8 ± 7.6 %
same,"frequency of premicturition contractions (relative value, before administration = 100)",After 3 hours,46.2 ± 8.1 %
same,"amplitude of micturition contractions (relative value, before administration = 100)",After 3 hours,105.5 ± 3.8%
same,"amplitude of premicturition contractions (relative value, before administration = 100)",After 5 hours,65.6 ± 7.5 %
same,"frequency of premicturition contractions (relative value, before administration = 100)",After 5 hours,42.4 ± 6.0 %
same,"amplitude of micturition contractions (relative value, before administration = 100)",After 5 hours,96.7 ± 2.4%
same,"effect on micturition contractions (voiding function), in words",,did not affect micturition contractions
same,"effect on premicturition contractions (amplitude and frequency), in words",,inhibited premicturition contractions
"CCOc1ccccc1OCCN[C@H](C)Cc1ccc(OC)c(S(N)(=O)=O)c1 [Tamsulosin, Tamsulosin hydrochloride]","amplitude of premicturition contractions (relative value, before administration = 100)",After 1 hour,62.0 ± 5.2 %
same,"frequency of premicturition contractions (relative value, before administration = 100)",After 1 hour,57.8 ± 7.5 %
same,"amplitude of micturition contractions (relative value, before administration = 100)",After 1 hour,108.5 ± 6.4%
same,"amplitude of premicturition contractions (relative value, before administration = 100)",After 3 hours,75.2 ± 5.5 %
same,"frequency of premicturition contractions (relative value, before administration = 100)",After 3 hours,73.2 ± 5.3 %
same,"amplitude of micturition contractions (relative value, before administration = 100)",After 3 hours,108.1 ± 6.0%
same,"amplitude of premicturition contractions (relative value, before administration = 100)",After 5 hours,88.3 ± 7.2 %
same,"frequency of premicturition contractions (relative value, before administration = 100)",After 5 hours,78.4 ± 7.0%
same,"amplitude of micturition contractions (relative value, before administration = 100)",After 5 hours,104.7 ± 6.4%
same,"effect on micturition contractions (voiding function), in words",,did not affect micturition contractions
same,"effect on premicturition contractions (amplitude and frequency), in words",,inhibited premicturition contractions
